Key:
[1] = test system: Rat thoracic aortic rings; assay: Rat aortic ring explant angiogenesis assay; conditions: 100 μM and 300 μM; p<0.05 vs control
Protocol: Methods: The isolated rat aortic ring model of angiogenesis is performed using the thoracic aorta from 150-175 gram, male Sprague-Dawley rats (Charles River). The excised thoracic aorta is placed in sterile saline solution and transferred to endothelial basal media (EBM, Clonetics) containing 1% antibiotics/antimycotic (Gibco BRL). Periadventitial fibroadipose tissue and any visible blood clots were removed. Aortas are cross-sectioned at ˜1 mm intervals and the resulting tissues placed in 100 μl of Dulbecco's Modified Eagle Medium (DMEM) containing 2% FBS, in the presence or absence of adenovirus for green fluorescent protein, empty virus or HPTPbeta (all at 1.0×10^11 virus particles/ml), as described. Rings are incubated for 30 minutes at 37° C. in a humidified incubator under a constant 5% CO2 atmosphere. Following adenoviral infection, aortic rings were washed with EBM and placed in a 24-well tissue culture plate. Aortic rings are overlaid with 450 μl of collagen solution consisting of 8 volumes of 3 mg/ml rat tail collagen (Sigma) in 0.1% acetic acid, 1 volume of 10× M-199 supplemented with 100 mg/ml L-glutamine, and 1 volume of 10× collagen buffer (0.0SN NaOH, 200 mM HEPES, 260 mM NaHCO3). […] Images (TIFF) are taken using a SPOT camera connected to a Nikon inverted microscope and analyzed (vessel extent and area) using automated image analysis software. […]

Tie-2 = assay: Ligand-induced Tie-2 phosphorylation in endothelial cells (anti-phosphotyrosine western blot); type: cell-based, human; conditions: endothelial cells pretreated 30 minutes with 0.1 mM or 1 mM; vs vehicle; p<0.05
Protocol: (§1) VEGFR2 and Tie-2 receptor phosphorylation is assayed by anti-phosphotyrosine western blotting following immunoprecipitation of the receptors from endothelial cells or receptor transfected 293 cells. Briefly, endothelial cells (HUVEC's) are plated on 100 mm dishes, stimulated with a dose range of either recombinant VEGF165 or recombinant Angiopoietin-1 (R&D Systems, resuspended in PBS containing 0.2% bovine serum albumin) for 5 or 7 minutes, respectively. […] Signal is detected using HRP labeled secondary antibodies and ECL solution (Amersham). […] Resulting films are scanned and quantitated using Quantity-One software (Bio-Rad) and results reported as the amount of phosphotyrosine signal over receptor signal (P-Tyr/Receptor).
(§2) Transfection in HUVEC's is performed with the above-mentioned antisense oligos at a 200 nM final concentration using LIPOFECTIN™ (Invitrogen), a reagent for transfectin of endothelial cells and transfection of DNA or RNA into cell lines, in OPTIMEM™-I (Gibco), a modification of Eagles Minimum Essential Medium, buffered with HEPES and sodium bicarbonate (2.4 g/L) and supplemented with hypoxanthine, thymidine, sodium pyruvate, L-glutamine, trace elements, and growth factors, according to the manufacturers instructions. […] Uptake efficiency is monitored in every transfection using a fluorescently labeled oligonucleotide and determined to be >90% in every experiment.” […]

[2] = test system: panel of recombinant phosphatases; assay: Selectivity against a panel of recombinant phosphatases; type: biochemical; conditions: all panel phosphatases except the closely related HPTPeta
Protocol: FIG. 10. Compound 1 ((R)-[1-Methylcarbamoyl-2-(4-sulfoamino-phenyl)-ethyl]-carbamic acid tert-butyl ester) is a selective HPTPbeta inhibitor. Compound 1 was assayed for inhibition of a panel of recombinant phosphatases essentially as described in Example 2 for HPTPbeta. This compound was at least 10 fold selective for HPTPbeta over the other phosphatases tested except for the closely related HPTPeta.
Methods: The potency of a class of HPTPbeta inhibitors was optimized by iterative screening for inhibition of HPTPbeta activity measured as described in Example 2. […] To determine selectivity, compound 1 was tested against a panel of several other recombinant phosphatases (FIG. 10). VEGFR2 and Tie-2 receptor activation was assayed as mentioned in example 4. However, to assess the effect of the HPTPbeta inhibitor, the cells were pretreated for 30 minutes prior to stimulation with either 0.1 mM or 1 mM Compound 1 in Opti-MEM media (Invitrogen) at 37° C./5% CO2. Results: A potent and selective HPTPbeta inhibitor (Compound 1) was developed (see Example 11) as an agent to enhance the activation of VEGFR2 and Tie2 (FIG. 10). Compound was at least 10 fold selective for HPTPbeta versus the any of the other phosphatases except for the closely related HPTPeta. […] Clearly, these assays could be used to optimize the potency and selectivity and to test the efficacy of other HPTPbeta inhibitors.

HPTPbeta = target: T1, HPTPbeta (Homo sapiens, UniProt P23467); assay: Inhibition of recombinant HPTPbeta phosphatase activity (DiFMUP substrate); type: biochemical; conditions: assay as in Example 2
T1 construct: GST (N, cleaved yes); His6 (C); made in house; host or cells: E. coli BL21-RIL
T1 sequence (P23467 with tags, fused parts or gaps): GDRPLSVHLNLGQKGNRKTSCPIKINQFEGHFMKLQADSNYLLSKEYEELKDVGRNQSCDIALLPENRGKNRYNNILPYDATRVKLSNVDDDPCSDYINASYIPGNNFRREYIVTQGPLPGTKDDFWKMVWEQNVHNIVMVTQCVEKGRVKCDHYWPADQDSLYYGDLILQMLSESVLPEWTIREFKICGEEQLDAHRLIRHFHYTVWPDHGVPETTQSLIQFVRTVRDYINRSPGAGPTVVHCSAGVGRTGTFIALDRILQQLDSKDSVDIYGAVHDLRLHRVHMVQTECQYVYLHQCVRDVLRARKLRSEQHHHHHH
Protocol: Methods: Expression and purification of recombinant HPTPbeta catalytic domain [SEQ ID NO: 16] is accomplished by subcloning the intracellular domain of HPTPbeta (cDNA clone starting at the codon for amino acid 1662 through the stop codon) into the pGEX4T1 vector (Pharmacia) and expressed as a GST-fusion protein in E. coli BL21-RIL cells (Stratagene). Induced cells are thawed on ice and resuspended in 20 mM Tris-HCl, pH=8.0, 1% Trition x-100, 2 mM DTT and EDTA-free protease inhibitor cocktail. 10 mg/ml lysozyme is added and cells are lysed by sonication. The cell debris is pelleted using the Beckman J2-MI at 17,000 rpm. The supernatant is added to prepared glutathione sepharose 4B resin batch method. After binding, the column is poured and packed with the resin/protein mixture and then washed. […]
Measurements of recombinant phosphatase activity are performed using the substrate DiFMUP (6,8-difluoro-4-methylumbelliferyl phosphate) from Molecular Probes. […] Measurements of increased substrate fluorescence, indicative of phosphatase activity, are observed at an excitation wavelength of 355 nm and an emission wavelength of 460 nm using a Victor V plate reader (Wallac).
Methods: The potency of a class of HPTPbeta inhibitors was optimized by iterative screening for inhibition of HPTPbeta activity measured as described in Example 2. […]

[3] = test system: Human umbilical vein endothelial cells (HUVEC); assay: Endothelial cell survival (CellTiter-Glo); type: cell-based; conditions: 500 μM compound
Protocol: Methods: Human umbilical vein endothelial cells (HUVEC, Clonetics) were seeded at 10,000/well in a 96-well plate for 2 hours in EGM media (Clonetics). The cells were then serum-deprived for 2 hours in DMEM (Invitrogen) supplemented with 0.2% bovine serum albumin. Quadruplicate wells were then treated with either vehicle or 500 μM Compound in the presence or absence of either 500 pM recombinant human VEGF165 or 250 ng/mL recombinant human Angiopoietin-1 (Ang-1) (R&D Systems) for 72 hours in DMEM supplemented with 0.2% bovine serum albumin. Cells remaining after incubation were detected using the CellTiter-Glo™ System according to the manufacturers instructions (Promega) and measured using a Victor V plate reader (Perkin Elmer/Wallac).

VEGFR2 = assay: Ligand-induced VEGFR2 phosphorylation in endothelial cells (anti-phosphotyrosine western blot); type: cell-based, human; conditions: endothelial cells pretreated 30 minutes with 0.1 mM or 1 mM; vs vehicle; p<0.05
Protocol: as §1, §2

HUVEC = assay: In-cell phosphatase activity (DiFMUP) in HPTPbeta adenovirus infected HUVECs; type: cell-based, human; conditions: 500 μM
Protocol: In cell phosphatase assays are accomplished by infecting Human Umbilical Vein Endothelial Cells with HPTPbeta, GFP, or Empty adenovirus in 100 mm dishes for 24 hours. Infected cells were trypsinized and re-plated at 5,000 cells/well in a 96 well plate and allowed to attach for 2 hours in complete growth medium (EGM). Complete medium was replaced with Hanks Buffered Saline (HBSS, Gibco) and substrate fluorescence are measured 15 minutes after the addition of 100 uM DiFMUP substrate (Molecular Probes) using a Victor V plate reader as mentioned in Example 2.

HEK293H cells = assay: In-cell phosphatase activity (DiFMUP) in HPTPbeta-transfected HEK293H cells; type: cell-based, human; conditions: 500 μM, 15 minutes pre-incubation
Protocol: For phosphatase activity in human embryonic kidney cells, HEK293H (Gibco) are grown in suspension in 293SFM media (Gibco) and transfected on 100 mm dishes using LIPOFECTAMINE™ 2000 (Invitrogen), a proprietary formulation for the transfection of nucleic acids (DNA and RNA) into eukaryotic cells. After 24 hours cells are resuspended transferred back to shaker flasks for an additional 24 hours. Phosphatase activity is measured using DiFMUP in 96 well plates as above with 100,000 cells/well. For inhibition of tyrosine phosphatases, the cells are pre-incubated with Bis-maloalto-organovanadium (BMOV) for 15 minutes prior to the addition of DIFMUP. HPTPbeta protein expression is confirmed after each experiment in parallel plates by western blotting.

Row | Structure (SMILES) | vessel area [1] | vessel extent [1] | ligand stimulated tyrosine phosphorylation of Tie-2 (Tie-2) | selectivity for HPTPbeta over the other phosphatases tested [2] | potency of inhibition of HPTPbeta activity (HPTPbeta) | cell survival with VEGF165 stimulation ([3]; 500 pM VEGF165, 72 hours, vs vehicle) | cell survival with Ang-1 stimulation ([3]; 250 ng/mL Ang-1, 72 hours, vs vehicle) | basal cell survival ([3]; no ligand, vs untreated controls) | ligand stimulated tyrosine phosphorylation of VEGFR2 (VEGFR2) | phosphatase activity in HUVEC's (HUVEC) | phosphatase activity in HEK293H cells (HEK293H cells)
1 | CNC(=O)C(Cc1ccc(NS(=O)(=O)O)cc1)NC(=O)OC(C)(C)C (stereo in doubt) [Compound 1, (R)-[1-Methylcarbamoyl-2-(4-sulfoamino-phenyl)-ethyl]-carbamic acid tert-butyl ester] | significant increases | significant increases | increased | at least 10 fold | nanomolar | increased cell survival | increased cell survival | increased basal levels of survival | increased |  | 
2 | Cc1occc(=O)c1[O-].Cc1occc(=O)c1[O-].[O]=[V+2] [BMOV, Bis-maloalto-organovanadium] |  |  |  |  |  |  |  |  |  | inhibited | inhibited

Source: patent US7632862B2, “Pharmaceutical compositions that modulate HPTPbeta activity” (Procter & Gamble Company, priority 2002, dated 2009)
